Experimental data from patent US12552800B2, “Compounds for diagnosis” (AC IMMUNE SA, priority 2020, dated 2026).
Entries after “also recorded” stand apart in the source; their conditions may differ. Like-named read-outs stand apart in the source and are kept apart here.

Columns and labels:
[1] = molecular target: T1, a-syn aggregates (Lewy bodies and Lewy neurites) (Homo sapiens, UniProt P37840); assay: High resolution micro-autoradiography of Example-4 [^3H-4] on PD tissue; format: binding; conditions: 20 nM
T1 construct: performed on frozen human brain sections from different a-synucleinopathy cases; from tissue; host or cells: frozen human brain sections (PD, PDD, MSA, DLB, LBV; NDC as controls)
Experimental: (§1) The protocol was adapted from Marquie et al., 2015. Sections were incubated with tritiated example compound 4 (Example-4 [^3H-4]) or a reference Tau ligand ([^3H]-Tau-Ref at 20 nM for one hour at RT. Sections were then washed as follows: One time in ice-cold 50 mM Tris-HCl pH 7.4 buffer for one minute, two times in 70% ice-cold ethanol for one minute, one time in ice-cold 50 mM Tris-HCl pH 7.4 buffer for one minute and finally rinsed briefly in ice-cold distilled water. Sections were subsequently dried and then exposed to Ilford Nuclear Emulsion Type K5 (Agar Scientific, AGP9281) in a light-proof slide storage box. After five days, the sections were developed by immersing them successively in the following solutions: 1.) Ilford Phenisol Developer (1:5 dilution in H2O, Agar Scientific, AGP9106), 2.) Ilfostop solution (1:20 dilution in H2O, Agar Scientific, AGP9104), 3.) Ilford Hypam Fixer (1:5 dilution in H2O, Agar Scientific, AGP9183) and finally rinsed with H2O.
(§2) When indicated, immunostaining was also performed on the same section. For image acquisition, sections were mounted using ProLong Gold Antifade reagent (Invitrogen P36930) and imaged on a Panoramic150 Slide Scanner (3DHistech) with a 20× objective capturing separately brightfield and fluorescent images. […]

Tau aggregates [2] = assay: Micro-autoradiography of Example-4 [^3H-4] on AD tissue; format: binding, human; conditions: AD brain tissue, compared to [^3H]-Tau-Ref
Experimental: as §1

[3] = molecular target: T2, PD brain-derived a-syn aggregates (Homo sapiens, UniProt P37840); assay: Saturation binding of Example-4 [^3H-4] by micro-radiobinding; conditions: PD homogenates
T2 construct: from tissue; host or cells: human PD donor brain, sarkosyl-insoluble 100,000 x g pellet
Experimental: PD brain-derived a-syn aggregates were spotted onto microarray slides. The slides were incubated with Example-4 [^3H-4] at increasing concentrations in the range of 1.56 nM to 80 nM. After incubation, slides were scanned by a real-time autoradiography system (BeaQuant instrument, ai4R). Quantification of the signal was performed by using the Beamage image analysis software (ai4R).

pathological a-synuclein = assay: Autoradiography of Example-4 [^3H-4] in brain sections from PD, MSA and NDC donors; format: binding, human; conditions: 10 nM
Experimental: (§3) Frozen human brain sections from one familial PD case (a-synuclein [SNCA] gene G51 D missense mutation), labelled as SNCA, one idiopathic PD case, one MSA case and two non-demented control (NDC) cases were first briefly fixed for 15 minutes at 4° C. with 4% paraformaldehyde (Sigma, 252549) and washed three times for five minutes with PBS (Dulbecco's phosphate buffered saline, Sigma) at RT. All slides were then equilibrated for 20 minutes in 50 mM Tris-HCl pH 7.4 buffer prior to use in the experiment. Each brain section was incubated with a fixed concentration (10 nM) of tritiated example compound 4 (Example-4 [^3H-4]) in Tris-HCl buffer for two hours at RT (Total binding, ‘Total’). […] The slides were washed and then exposed and scanned in a real-time autoradiography system (BeaQuant instrument, ai4R).

Tau aggregates [4] = assay: Micro-autoradiography of Example-1 [^3H-1] on AD tissue; format: binding, human; conditions: AD brain tissue, compared to [3H]-Tau-Ref
Experimental: as §1, with “compound 1 (Example-1 [3H-1])” for “compound 4 (Example-4 [^3H-4])”, “ligand ([3H]-Tau-Ref” for “ligand ([^3H]-Tau-Ref”, “at 60” for “at 20”, “at room temperature (RT).” for “at RT.”, “H2O. […]” for “H2O.”

[5] = molecular target: T3, TAR DNA-binding protein 43 (TDP-43) aggregates (Homo sapiens, UniProt Q13148); assay: Micro-autoradiography of Example-1 [^3H-1] on FTLD-TDP type C tissue; conditions: FTLD-TDP Type C brain tissue
T3 construct: present in Frontotemporal Lobar Degeneration TDP (FTLD-TDP) Type C brain tissue; from tissue; host or cells: FTLD-TDP type C brain tissue sections
Experimental: as §1, with “compound 1 (Example-1 [3H-1])” for “compound 4 (Example-4 [^3H-4])”, “ligand ([3H]-Tau-Ref” for “ligand ([^3H]-Tau-Ref”, “at 60” for “at 20”, “at room temperature (RT).” for “at RT.”, “H2O. […]” for “H2O.”

[6] = molecular target: T1, a-syn aggregates (Lewy bodies and Lewy neurites); assay: High resolution micro-autoradiography of Example-1 [^3H-1] in a-synucleinopathy tissues; format: binding; conditions: 60 nM; PD, PDD, MSA, DLB, LBV tissue
Experimental: as §1, with “compound 1 (Example-1 [3H-1])” for “compound 4 (Example-4 [^3H-4])”, “ligand ([3H]-Tau-Ref” for “ligand ([^3H]-Tau-Ref”, “at 60” for “at 20”, “at room temperature (RT).” for “at RT.”
as §2

[7] = molecular target: T4, pathological a-synuclein aggregates (Homo sapiens, UniProt P37840); assay: Autoradiography of Example-1 [^3H-1] in brain sections from PD, PDD and NDC donors; format: binding
Experimental: (§4) Frozen human brain sections from one familial PD case (a-synuclein [SNCA] gene G51 D missense mutation), labelled as SNCA (G51 D), one PDD case and two non-demented control (NDC) cases were first briefly fixed for 15 minutes at 4° C. with 4% paraformaldehyde (Sigma, 252549) and washed three times for five minutes with PBS (Dulbecco's phosphate buffered saline, Sigma) at RT. All slides were then equilibrated for 20 minutes in 50 mM Tris-HCl pH 7.4 buffer prior to use in the experiment. Each brain section was incubated with a fixed concentration (10 nM) of tritiated example compound 1 (Example-1 [^3H-1]) or a reference a-syn ligand ([3H]-a-syn-Ref), or increasing concentrations of Example-1 [^3H-1] in the range of 1.25 nM to 80 nM of tritiated compound in Tris-HCl buffer for two hours at RT (Total binding, ‘−’). To determine non-specific (NS) binding Example-1 [^3H-1] or [3H]-a-syn-Ref was mixed with 1 μM of non-radiolabelled compound (Example 1 or a-syn-Ref respectively, self-block, ‘+’). The slides were washed and placed under Phosphor imaging screens (GE healthcare, BAS-IP TR 2025) in imaging cassettes. Imaging screens were scanned using a laser imaging system (Typhoon, FLA 7000) and resulting images were analyzed using the ImageJ software package.

[8] = molecular target: T5, pathological a-synuclein aggregates (Homo sapiens, UniProt P37840, G51D); assay: as above; format: binding; conditions: Genetic PD (SNCA (G51D)) brain tissue, autoradiography
T5 construct: Frozen human brain sections from one familial PD case; from tissue; host or cells: frozen human brain sections: familial PD (SNCA G51D), PDD or idiopathic PD, MSA, NDC controls
Experimental: as §4

[9] = molecular target: T2, PD brain-derived a-syn aggregates; assay: Saturation binding of Example-1 [^3H-1] by micro-radiobinding; conditions: head-to-head with [3H]-a-syn-Ref
Experimental: PD brain-derived a-syn aggregates were spotted onto microarray slides. The slides were incubated with Example-1 [^3H-1] or [3H]-a-syn-Ref at increasing concentrations in the range of 300 pM to 150 nM. After incubation, slides were washed and exposed to a phosphor storage screen (GE healthcare, BAS-IP TR 2025). Following exposure, phosphor storage screens were scanned with a laser imaging system (Typhoon FLA 7000) to readout the signal from the radiobinding experiments described above. Quantification of the signal was performed using the ImageJ software package.

a-syn pathology = molecular target: T6, a-syn pathology (Homo sapiens, UniProt P37840); assay: Autoradiography of Example-1 [^3H-1] in brain sections from PD, PDD, MSA, LBV and NDC donors; format: binding; conditions: 10 nM
T6 construct: performed on frozen human brain sections from different a-synucleinopathy cases; from tissue; host or cells: frozen human brain sections (PD, PDD, MSA, DLB, LBV; NDC as controls)
Experimental: as §3, with “one” for “one familial PD case (a-synuclein [SNCA] gene G51 D missense mutation), labelled as SNCA, one idiopathic”, “case, two PDD cases, two MSA cases,” for “case,”, “one LBV” for “one MSA”, “and three” for “and two”, “compound 1 (Example-1 [^3H-1])” for “compound 4 (Example-4 [^3H-4])”

[10] = molecular target: T4, pathological a-synuclein aggregates; assay: Autoradiography of Example-1 [^3H-1] in brain sections from PD, PDD and NDC donors; format: binding; parameters: Frozen human brain sections from one familial PD case; from tissue; host or cells: frozen human brain sections: familial PD (SNCA G51D), PDD or idiopathic PD, MSA, NDC controls; conditions: PDD brain tissue, autoradiography
Experimental: as §4

T3 sequence (Q13148 whole entry): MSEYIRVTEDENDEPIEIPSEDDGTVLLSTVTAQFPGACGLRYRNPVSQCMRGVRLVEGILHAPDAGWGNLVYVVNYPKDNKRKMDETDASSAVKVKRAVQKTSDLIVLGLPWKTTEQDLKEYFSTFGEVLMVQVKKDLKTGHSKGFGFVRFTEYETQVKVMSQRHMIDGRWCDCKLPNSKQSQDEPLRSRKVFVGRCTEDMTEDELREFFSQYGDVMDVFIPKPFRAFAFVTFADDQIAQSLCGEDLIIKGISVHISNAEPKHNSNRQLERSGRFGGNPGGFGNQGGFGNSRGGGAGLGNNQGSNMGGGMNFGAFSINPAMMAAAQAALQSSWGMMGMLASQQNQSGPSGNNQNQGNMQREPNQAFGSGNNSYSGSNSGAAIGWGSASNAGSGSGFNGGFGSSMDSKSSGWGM

Row | Kd [3] [nM] | specific binding in a-synucleinopathy tissues (pathological a-synuclein; MSA, familial PD, idiopathic PD) | SMILES | target engagement on Lewy bodies and Lewy neurites (silver grains) [1] | target engagement on Tau aggregates (Tau aggregates [2]) | target engagement on Tau aggregates (Tau aggregates [2]; listed as Example-4 [^3H-1]) | signal in non-diseased control cases (pathological a-synuclein) | target engagement on Tau aggregates (Tau aggregates [4]) | binding to TDP-43 aggregates [5] | target engagement on Lewy bodies and Lewy neurites (silver grains) [6] | Kd ([7]; PDD and genetic PD tissue, range of both, read-out: dissociation constant (Kd)) [nM] | binding in non-diseased tissue (NDC) ([7]; autoradiography, 10 nM) | specific binding in a-synucleinopathy brain sections ([7]; autoradiography, PDD and PD tissue, compared to [3H]-a-syn-Ref at 10 nM) | B max [8] | Kd [8] [nM] | binding site occupancy [9] | autoradiographic signal in non-demented control cases (a-syn pathology) | target engagement in a-synucleinopathy tissues (a-syn pathology; MSA, LBV, PDD cases) | B max [10] | Kd [10] [nM]
1 | 21 | specific binding | [3H]C([3H])([3H])n1cc(N2Cc3nn(-c4ccc(N5CC[C@@H](F)C5)nc4)cc3C2=O)cn1 [Example-4 [^3H-4]] | Accumulation of silver grains on Lewy bodies and Lewy neurites; also recorded: strong target engagement | did not display specific target engagement | No accumulation of silver grains | very weak signal | – | – | – | – | – | – | – | – | – | – | – | – | –
2 | – | – | [3H]c1cncc(N2Cc3nn(-c4cnc(N5CC[C@@H](F)C5)c([3H])c4)cc3C2=O)c1 [Example-1 [^3H-1]] | – | – | – | – | No accumulation of silver grains on Tau tangles; also recorded: did not display specific target engagement | No accumulation of silver grains on TDP-43 aggregates; also recorded: very weak to no binding | Accumulation of silver grains on Lewy bodies and Lewy neurites; also recorded: strong target engagement | 11 to 13 | very weak binding | improved total and excellent specific binding | 3004 | 13 | high and improved binding site occupancy | weak | target engagement | 1104 | 11
